We go through two molecules from patent US10059715B2, “Acid addition salt of ibrutinib” (ratiopharm GmbH, priority 2014, dated 2018).

In brackets after ≈: the same amount, converted by molar mass. Where a name gives a salt, the structure may show the parent alone.

The nature of one data set: physchem. The note with it: 37 °C, thermodynamic from solid.
Data set [1] in a line: Comparison of solubilities at pH values relevant for the gastrointestinal tract.
For data set [2] the following is noted: at about pH 8; cited from earlier work.
[3] abbreviates: 20 mMol NaAc solution, pH 4.5, aqueous buffer.

`C=CC(=O)N1CCC[C@@H](n2nc(-c3ccc(Oc4ccccc4)cc3)c3c(N)ncnc32)C1` [HCl, ibrutinib hydrochloride] showed a solubility at 1 h in “physchem” (setting [3]) of 20 µg/mL. The solubility in data set [1] (pH 1.2 (0.1M HCl), 15 min, listed as crystalline ibrutinib hydrochloride, hydrochloride) amounted to 7370 µg/mL; in data set [1] (pH 1.2 (0.1M HCl), 1 h, hydrochloride) it was 7720 µg/mL; in data set [1] (pH 1.2 (0.1M HCl), 24 h, hydrochloride), 7380 µg/mL; in data set [1] (pH 4.5 (20 mMol NaAc), 15 min), 10 µg/mL; in data set [1] (pH 4.5 (20 mMol NaAc), 24 h, 37° C., hydrochloride), 460 µg/mL; in data set [1] (pH 6.8 (50 mMol KH2PO4), 15 min), 10 µg/mL. The solubility in data set [1] (pH 6.8 (50 mMol KH2PO4), 1 h, 37° C., hydrochloride) worked out at 50 µg/mL; in data set [1] (pH 6.8 (50 mMol KH2PO4), 24 h, 37° C., hydrochloride), 410 µg/mL.
In the case of `C=CC(=O)N1CCC[C@@H](n2nc(-c3ccc(Oc4ccccc4)cc3)c3c(N)ncnc32)C1` [base, 1-[(3R)-3[4-Amino-3-(4-phenoxyphenyl)-1H-pyrazolo[3,4-d]pyrimidin-1-yl]piperidin-1-yl]prop-2-en-1one], the solubility at 15 min in the data set “physchem” (setting [3]) turned out to be 10 µg/mL (≈ 22.7 µM); in the data set “physchem” (50 mMol KH2PO4 solution, pH 6.8, aqueous buffer) it was 10 µg/mL (≈ 22.7 µM). In addition, the observed aqueous solubility entry in data set [2] is reported as “about 0.013 mg/ml”. In addition, the solubility in data set [1] (pH 1.2 (0.1M HCl), 15 min, listed as ibrutinib base (form A)) is 2070 µg/mL (≈ 4700 µM); in data set [1] (pH 1.2 (0.1M HCl), 1 h) it was 2640 µg/mL (≈ 5990 µM); in data set [1] (pH 1.2 (0.1M HCl), 24 h) it was 2640 µg/mL (≈ 5990 µM); in data set [1] (pH 4.5 (20 mMol NaAc), 1 h, 37° C.), 10 µg/mL (≈ 22.7 µM); in data set [1] (pH 4.5 (20 mMol NaAc), 24 h, 37° C.), 10 µg/mL (≈ 22.7 µM); in data set [1] (pH 6.8 (50 mMol KH2PO4), 1 h, 37° C.), 10 µg/mL (≈ 22.7 µM). In data set [1] (pH 6.8 (50 mMol KH2PO4), 24 h, 37° C.), this molecule returned a solubility of 10 µg/mL (≈ 22.7 µM). In addition, the “solubility (in words)” value in data set [1] (pH 4.5, time not stated) was “substantially insoluble”; in data set [1] (pH 6.8, time not stated), “substantially insoluble”.

A word on the solubility: it is how much of the substance goes into solution per volume. Lower therefore signals little dissolved substance.
